According to PubChem BioAssay AID1417 (Emory University Molecular Libraries Screening Center, 2008):

Target: Induced myeloid leukemia cell differentiation protein Mcl-1 (Homo sapiens) (UniProt Q07820)
Assay: Mcl-1/Noxa binding inhibitor potency, dose response, biochemical, TR-FRET (AID 1417)
Conditions: Mcl-1/Noxa peptide interaction, cell-free TR-FRET (terbium/rhodamine), 2 h; measured here: absolute IC50

Chain of Induced myeloid leukemia cell differentiation protein Mcl-1 (Homo sapiens) (Q07820 whole entry, looked up): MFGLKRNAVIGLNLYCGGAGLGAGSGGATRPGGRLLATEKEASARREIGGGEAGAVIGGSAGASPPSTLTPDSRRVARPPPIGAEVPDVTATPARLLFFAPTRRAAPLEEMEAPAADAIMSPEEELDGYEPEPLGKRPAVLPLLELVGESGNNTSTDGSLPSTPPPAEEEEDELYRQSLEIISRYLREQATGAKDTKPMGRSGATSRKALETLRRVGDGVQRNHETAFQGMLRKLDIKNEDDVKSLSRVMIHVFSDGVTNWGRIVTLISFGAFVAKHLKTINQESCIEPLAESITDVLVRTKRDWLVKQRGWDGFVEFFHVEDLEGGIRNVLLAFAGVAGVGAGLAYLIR

| Compound | IC50 |
| --- | --- |
| CCOC(=O)C1CCN(C(=O)Nc2ccc3nc(-c4ccco4)c(-c4ccco4)nc3c2)CC1 | 932 nM |
| O=c1c2ccccc2nc(-c2ccco2)n1-c1cccnc1 | > 54000 nM |
| Cc1ccc(-n2c(O)c(C=Nc3ccccc3-c3n[nH]c(=S)[nH]c3=O)c3ccccc3c2=O)cc1C | 2750 nM |
| O=C(O)CSc1cc(C(=O)c2ccccc2O)cn2c(=O)c3c4c(sc3nc12)CCCC4 | 3380 nM |
| Nc1ccc(Cc2ccc(N)c(O)c2)cc1O | < 400 nM |
| CCN(c1ccc(NC(=O)COC(=O)/C=C/c2cccs2)cc1)C(C)C | 3810 nM |
| COc1ccc(-c2cc3nc4ccccc4n3c(N)c2C#N)cc1 | 4450 nM |
| CC(C)n1c(Nn2cnnc2)nc2ccccc21 | > 54000 nM |
| O=C(Cn1c(=O)n(-c2ccccc2)c(=O)c2sccc21)N1CCCC1 | > 54000 nM |
| O=[N+]([O-])c1ccc2c(c1)N([O-])C1(CCCCC1)[N+]2=O | < 400 nM |
| COc1cc(/C=N/NC(=O)c2cc(-c3ccco3)nc3ccccc23)cc(OC)c1O | < 400 nM |
| O=c1c2ccccc2sn1-c1cc(S(=O)(=O)N2CCOCC2)ccc1N1CCOCC1 | < 400 nM |
| O=C(O)CCn1cc(C=C2C(=O)NC(=S)NC2=O)c(-c2cccc(Br)c2)n1 | 2180 nM |
| O=C(C1=C[C@@H](c2ccc(C(F)(F)F)cc2)C[C@@H](OCc2ccc(CO)cc2)O1)N1CCN(Cc2ccccc2)CC1 | > 54000 nM |
| CC(C)c1nc2sc3c(=O)[nH]c(=S)[nH]c3c2c2c1CCC2 | 7390 nM |
| CCOC(=O)C1=C(O)c2ccccc2C(=O)/C1=C\c1ccc(CC)cc1 | < 400 nM |
| CCOc1ccc(C(=O)Nc2cc(NC(=O)c3ccc(OCC)c(Cl)c3)cc(C(=O)O)c2)cc1Cl | 16500 nM |
| CC1=C(SCCC#N)S/C(=C2\SC(C)=C(SCCC#N)S2)S1 | 2710 nM |
| CCOC(=O)C1CCCN(c2ccc(NC(=O)c3snc4c(=O)[nH]c(C)nc34)cc2)C1 (stereo not drawn) | 6540 nM |
| Cc1cc(NC(=O)Cc2cccs2)no1 | < 400 nM |
| COc1ccc(N=C2NC(=O)/C(=C\C=C\c3ccco3)S2)cc1 | 1480 nM |
| CCOc1ccccc1NC(=O)/C=C/C(N)=O | > 54000 nM |
| Cc1ccc(/C=C2\C(=O)NC(=S)N(c3ccccc3F)C2=O)s1 | 1860 nM |
| CC(=O)c1sc2nc(-c3cccs3)ccc2c1N | > 54000 nM |
| Oc1cc2c(cc1C(c1ccc(Cl)c(Cl)c1)N1CCCC1)OCO2 (stereo not drawn) | > 54000 nM |
| CN1CCC(N(C)c2nc(-c3ccc([N+](=O)[O-])cc3)nc3ccccc23)CC1 | < 400 nM |
| O=C(CSc1nnc(-c2ccco2)c(-c2ccco2)n1)c1ccccc1 | 3700 nM |

| Compound | IC50 |
| --- | --- |
| CCN(c1ccc(NC(=O)CCNC(=O)c2ccco2)cc1)C(C)C | > 54000 nM |
| CN(C)c1ccc(C(CNC(=O)c2ccc(C#N)cc2)c2c[nH]c3ccccc23)cc1 (stereo not drawn) | > 54000 nM |
| NC(=O)c1c(Nc2nc3c(F)cccc3s2)sc2c1CCCC2 | < 400 nM |
| CC12CN3CC(C)(CN(C1)C3c1ccccc1Cl)C2O (stereo not drawn) | > 54000 nM |
| COCCCNC(=O)/C(C#N)=C/c1ccc(OCC(=O)O)c(OC)c1 | 3460 nM |
| CC1=C(C#N)C(=O)N(C2CCS(=O)(=O)C2)C(=O)/C1=C\c1ccc(C)o1 (stereo not drawn) | < 400 nM |
| CNc1sc(C(=O)c2ccc(F)cc2)c(N)c1-c1nc2ccccc2s1 | 2090 nM |
| CCNc1ccc(Br)cc(C(=O)/C=C/c2ccc3c(c2)OCO3)c1=O | 499 nM |
| COc1ccc2nc(Nc3sc4c(c3C(N)=O)CCCC4)sc2c1 | < 400 nM |
| O=[N+]([O-])c1cc([N+](=O)[O-])c2cccnc2c1Oc1ccccc1O | 1270 nM |
| O=C1N=c2ccc(Br)cc2=C1c1sc(=S)n(NS(=O)(=O)c2ccccc2)c1O | > 54000 nM |
| CCN(CC)c1ccc(NC(=O)c2ccccc2OCC(=O)OC)cc1 | > 54000 nM |
| CC1=NOC(=O)/C1=C\c1ccc(-c2ccc(Cl)cc2Cl)o1 | < 400 nM |
| O=C(NN1C(=O)/C(=C/C=C/c2ccco2)SC1=S)c1ccccc1O | 1010 nM |
| Cc1ccc2nc(N3C(=O)C(O)=C(C(=O)c4cc5ccccc5o4)C3c3cccs3)sc2c1 (stereo not drawn) | 1220 nM |
| Cc1ccc2c(c1)c1ccc3c(c1n2C)C(=O)C=CC3=O | < 400 nM |
| C=C(C)C(=O)Nc1cccc(C2=NOC3(C2)C[C@@H](C(N)=O)N(C(=O)C(=C)C)C3)c1 (stereo partly drawn) | > 54000 nM |
| O=C1NC(=O)N(Cc2ccc(F)cc2)C(=O)/C1=C\c1ccc([N+](=O)[O-])s1 | 7450 nM |
| Cc1ccc(/C=C2\SC(=S)N(Cc3ccccc3)C2=O)o1 | > 54000 nM |
| CCN(CC)S(=O)(=O)c1cccc(C(=O)N/N=C/c2ccc(O)c(O)c2O)c1 | < 400 nM |
| CCOC(=O)c1cc(C(O)(C(=O)OC)C(F)(F)F)c(/N=C/N(C)C)o1 (stereo not drawn) | > 54000 nM |
| CC(C)Oc1ccc(C(=O)Nc2ccc(N(C)C)cc2)cc1 | > 54000 nM |
| CN(C)S(=O)(=O)c1cccc(NC(=S)N/N=C/c2ccc(O)c(O)c2O)c1 | < 400 nM |
| CCCCCCCCCCCCCCCC[n+]1cccc2ccccc21 | 5340 nM |
| COc1cc(/C=C2\SC(=O)N(c3ccc(Cl)cc3)C2=O)cc([N+](=O)[O-])c1O | < 400 nM |
| Cc1ccc(/C=C/C(=O)Nc2ccc(N(C)C)cc2)o1 | < 400 nM |
